# Measured values published in US20240279202A1 (NURIX THERAPEUTICS, INC., priority 2021, published 2024).
# Molecular target: T1, ITK (Mus musculus, UniProt Q03526)
# T1 construct: mice were sacrificed and splenocytes were isolated and used to prepare protein lysates; from tissue; host or cells: mouse splenocytes (spleen) after oral dosing
# T1 sequence (Q03526 1-625): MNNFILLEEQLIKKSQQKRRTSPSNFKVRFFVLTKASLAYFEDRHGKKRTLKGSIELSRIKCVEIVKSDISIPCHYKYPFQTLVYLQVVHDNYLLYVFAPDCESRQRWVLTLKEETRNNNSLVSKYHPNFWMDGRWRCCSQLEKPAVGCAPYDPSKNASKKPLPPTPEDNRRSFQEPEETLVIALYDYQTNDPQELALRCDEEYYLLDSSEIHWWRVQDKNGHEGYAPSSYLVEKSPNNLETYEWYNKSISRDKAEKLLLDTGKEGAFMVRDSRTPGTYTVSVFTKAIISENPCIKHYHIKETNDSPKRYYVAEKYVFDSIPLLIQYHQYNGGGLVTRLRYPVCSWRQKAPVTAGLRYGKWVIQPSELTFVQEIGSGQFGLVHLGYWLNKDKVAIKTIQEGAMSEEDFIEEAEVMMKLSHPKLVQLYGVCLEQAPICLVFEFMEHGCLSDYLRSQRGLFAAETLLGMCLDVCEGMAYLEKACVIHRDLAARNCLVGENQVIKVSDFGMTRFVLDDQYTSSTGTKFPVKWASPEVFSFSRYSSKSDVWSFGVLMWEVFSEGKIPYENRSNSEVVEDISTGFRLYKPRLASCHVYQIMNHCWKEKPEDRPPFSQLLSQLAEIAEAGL
# Assay: Mouse PD assay for ITK degradation (Western blot, splenocytes after oral administration)
# Type: in vivo
# Settings: mice, oral, splenocytes, Western blot, 6 hours
# Procedure, shortened: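 Mice dosed orally, some compounds at 90 mg/kg; splenocytes harvested after 6 hours (some 24 hours). ITK measured by Western blot of equal-protein lysates, normalized to actin. Values are % ITK remaining relative to vehicle-control mean.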
row,"ITK degradation in vivo at 6 hours (FIG. 3A, FIG. 4A)",Compound
1,degraded ITK in vivo,"C[C@@]12Cc3[nH]nc(C(=O)Nc4cnn(CC5CN(C(=O)C6CN(c7ccc8c(c7)C(=O)N(C7CCC(=O)NC7=O)C8=O)C6)C5)c4)c3C[C@@H]1C2(F)F (stereo partly drawn) [Compound 43, (4aS,5aR)-N-(1-((1-(1-(2-(2,6-dioxopiperidin-3-yl)-1,3-dioxoisoindolin-5-yl)azetidine-3-carbonyl)azetidin-3-yl)methyl)-1H-pyrazol-4-yl)-5,5-difluoro-5a-methyl-1,4,4a,5,5a,6-hexahydrocyclopropa[f]indazole-3-carboxamide]"
2,degraded ITK in vivo,"C[C@@]12Cc3[nH]nc(C(=O)Nc4cnn(CC5CN(C[C@H]6CCN(c7ccc8c(c7)C(=O)N(C7CCC(=O)NC7=O)C8=O)C6)C5)c4)c3C[C@@H]1C2(F)F (stereo partly drawn) [Compound 44, (4aS,5aR)-N-(1-((1-(((3R)-1-(2-(2,6-dioxopiperidin-3-yl)-1,3-dioxoisoindolin-5-yl)pyrrolidin-3-yl)methyl)azetidin-3-yl)methyl)-1H-pyrazol-4-yl)-5,5-difluoro-5a-methyl-1,4,4a,5,5a,6-hexahydrocyclopropa[f]indazole-3-carboxamide]"

# Same assay, conditions: percent ITK remaining in mouse splenocytes relative to vehicle, 90 mpk PO, 6 h
row,"ITK (%) 90 mpk PO, 6 h [%]",Compound
1,76,"CN(C(=O)CCC1CCN(c2ccc(C3CCC(=O)NC3=O)cn2)CC1)c1ccc2cc(-c3n[nH]c4c3C[C@@H]3C(F)(F)[C@]3(C)C4)[nH]c2c1 (stereo partly drawn) [Compound 21, N-(2-((4aS,5aR)-5,5-difluoro-5a-methyl-1,4,4a,5,5a,6-hexahydrocyclopropa[f]indazol-3-yl)-1H-indol-6-yl)-3-(1-(5-(2,6-dioxopiperidin-3-yl)pyridin-2-yl)piperidin-4-yl)-N-methylpropanamide]"
2,76,"CC1(C)CCc2c(-c3cc4ccc(N5CCC6(CCN(CC7CCN(c8ccc(C9CCC(=O)NC9=O)cn8)CC7)CC6)C5=O)cc4[nH]3)n[nH]c2C1 (stereo not drawn) [Compound 22, 3-(6-(4-((2-(2-(6,6-dimethyl-4,5,6,7-tetrahydro-1H-indazol-3-yl)-1H-indol-6-yl)-1-oxo-2,8-diazaspiro[4.5]decan-8-yl)methyl)piperidin-1-yl)pyridin-3-yl)piperidine-2,6-dione]"
3,67,"C[C@@H](C(=O)N(C)c1ccc2cc(-c3n[nH]c4c3CCC(C)(C)C4)[nH]c2c1)N1CCN(C[C@H]2CCN(c3ccc4c(c3)C(=O)N(C3CCC(=O)NC3=O)C4=O)C2)CC1 (stereo partly drawn) [Compound 33, (2S)—N-(2-(6,6-dimethyl-4,5,6,7-tetrahydro-1H-indazol-3-yl)-1H-indol-6-yl)-2-(4-(((3R)-1-(2-(2,6-dioxopiperidin-3-yl)-1,3-dioxoisoindolin-5-yl)pyrrolidin-3-yl)methyl)piperazin-1-yl)-N-methylpropanamide]"
4,108,"C[C@@H](C(=O)N(C)c1ccc2cc(-c3n[nH]c4c3CCC(C)(C)C4)[nH]c2c1)N1CCN(C(=O)C2CN(C3CCN(c4ccc5c(c4)C(=O)N(C4CCC(=O)NC4=O)C5=O)CC3)C2)CC1 (stereo partly drawn) [Compound 34, (2S)—N-(2-(6,6-dimethyl-4,5,6,7-tetrahydro-1H-indazol-3-yl)-1H-indol-6-yl)-2-(4-(1-(1-(2-(2,6-dioxopiperidin-3-yl)-1,3-dioxoisoindolin-5-yl)piperidin-4-yl)azetidine-3-carbonyl)piperazin-1-yl)-N-methylpropanamide]"
5,108,"CN(C(=O)C1CN(C2CCN(c3ccc4c(c3)C(=O)N(C3CCC(=O)NC3=O)C4=O)CC2)C1)c1ccc2cc(-c3n[nH]c4c3CCC(C)(C)C4)[nH]c2c1 (stereo not drawn) [Compound 35, N-(2-(6,6-dimethyl-4,5,6,7-tetrahydro-1H-indazol-3-yl)-1H-indol-6-yl)-1-(1-(2-(2,6-dioxopiperidin-3-yl)-1,3-dioxoisoindolin-5-yl)piperidin-4-yl)-N-methylazetidine-3-carboxamide]"
6,82,"C[C@@]12Cc3[nH]nc(C(=O)Nc4cnn(CC5CN(C(=O)C6CN(C7CCN(c8ccc9c(c8)C(=O)N(C8CCC(=O)NC8=O)C9=O)CC7)C6)C5)c4)c3C[C@@H]1C2(F)F (stereo partly drawn) [Compound 42, (4aS,5aR)-N-(1-((1-(1-(1-(2-(2,6-dioxopiperidin-3-yl)-1,3-dioxoisoindolin-5-yl)piperidin-4-yl)azetidine-3-carbonyl)azetidin-3-yl)methyl)-1H-pyrazol-4-yl)-5,5-difluoro-5a-methyl-1,4,4a,5,5a,6-hexahydrocyclopropa[f]indazole-3-carboxamide]"
7,7,"C[C@@]12Cc3[nH]nc(C(=O)Nc4cnn(CC5CN(C(=O)C6CN(c7ccc8c(c7)C(=O)N(C7CCC(=O)NC7=O)C8=O)C6)C5)c4)c3C[C@@H]1C2(F)F (stereo partly drawn) [Compound 43, (4aS,5aR)-N-(1-((1-(1-(2-(2,6-dioxopiperidin-3-yl)-1,3-dioxoisoindolin-5-yl)azetidine-3-carbonyl)azetidin-3-yl)methyl)-1H-pyrazol-4-yl)-5,5-difluoro-5a-methyl-1,4,4a,5,5a,6-hexahydrocyclopropa[f]indazole-3-carboxamide]"
8,75,"C[C@@]12Cc3[nH]nc(C(=O)Nc4cnn(CC5CN(C[C@H]6CCN(c7ccc8c(c7)C(=O)N(C7CCC(=O)NC7=O)C8=O)C6)C5)c4)c3C[C@@H]1C2(F)F (stereo partly drawn) [Compound 44, (4aS,5aR)-N-(1-((1-(((3R)-1-(2-(2,6-dioxopiperidin-3-yl)-1,3-dioxoisoindolin-5-yl)pyrrolidin-3-yl)methyl)azetidin-3-yl)methyl)-1H-pyrazol-4-yl)-5,5-difluoro-5a-methyl-1,4,4a,5,5a,6-hexahydrocyclopropa[f]indazole-3-carboxamide]"
9,102,"Cn1c(=O)n([C@H]2CCC(=O)NC2=O)c2cccc(N3CCC(CN4CCN(C(=O)c5ccc6cc(-c7n[nH]c8c7CCC(C)(C)C8)[nH]c6c5)CC4)CC3)c21 [Compound 46, (S)-3-(4-(4-((4-(2-(6,6-dimethyl-4,5,6,7-tetrahydro-1H-indazol-3-yl)-1H-indole-6-carbonyl)piperazin-1-yl)methyl)piperidin-1-yl)-3-methyl-2-oxo-2,3-dihydro-1H-benzo[d]imidazol-1-yl)piperidine-2,6-dione]"
10,11,"CC1(C)CCc2c(-c3cc4ccc(C(=O)N5CCN(CC6CCN(c7ccc(C8CCC(=O)NC8=O)cn7)CC6)CC5)cc4[nH]3)n[nH]c2C1 (stereo not drawn) [Compound 47, 3-(6-(4-((4-(2-(6,6-dimethyl-4,5,6,7-tetrahydro-1H-indazol-3-yl)-1H-indole-6-carbonyl)piperazin-1-yl)methyl)piperidin-1-yl)pyridin-3-yl)piperidine-2,6-dione]"
11,35,"Cn1c(=O)n([C@@H]2CCC(=O)NC2=O)c2cccc(N3CCC(CN4CCN(C(=O)c5ccc6cc(-c7n[nH]c8c7CCC(C)(C)C8)[nH]c6c5)CC4)CC3)c21 [Compound 48, (R)-3-(4-(4-((4-(2-(6,6-dimethyl-4,5,6,7-tetrahydro-1H-indazol-3-yl)-1H-indole-6-carbonyl)piperazin-1-yl)methyl)piperidin-1-yl)-3-methyl-2-oxo-2,3-dihydro-1H-benzo[d]imidazol-1-yl)piperidine-2,6-dione]"
12,129,"C[C@@]12Cc3[nH]nc(C(=O)Nc4cnn(CC5CN(C(=O)C6CN(c7ccc(C8CCC(=O)NC8=O)cn7)C6)C5)c4)c3C[C@@H]1C2(F)F (stereo partly drawn) [Compound 49, (4aS,5aR)-N-(1-((1-(1-(5-(2,6-dioxopiperidin-3-yl)pyridin-2-yl)azetidine-3-carbonyl)azetidin-3-yl)methyl)-1H-pyrazol-4-yl)-5,5-difluoro-5a-methyl-1,4,4a,5,5a,6-hexahydrocyclopropa[f]indazole-3-carboxamide]"
13,113,"C[C@@]12Cc3[nH]nc(C(=O)Nc4cnn(CC5CN(C(=O)C6CCN(c7ccc(C8CCC(=O)NC8=O)cn7)CC6)C5)c4)c3C[C@@H]1C2(F)F (stereo partly drawn) [Compound 50, (4aS,5aR)-N-(1-((1-(1-(5-(2,6-dioxopiperidin-3-yl)pyridin-2-yl)piperidine-4-carbonyl)azetidin-3-yl)methyl)-1H-pyrazol-4-yl)-5,5-difluoro-5a-methyl-1,4,4a,5,5a,6-hexahydrocyclopropa[f]indazole-3-carboxamide]"
14,58,"C[C@@H](C(=O)N(C)c1ccc2cc(-c3n[nH]c4c3C[C@@H]3C(F)(F)[C@]3(C)C4)[nH]c2c1)N1CCN(CC2CCN(c3cccc4c3n(C)c(=O)n4C3CCC(=O)NC3=O)CC2)CC1 (stereo partly drawn) [Compound 65, (2S)—N-(2-((4aS,5aR)-5,5-difluoro-5a-methyl-1,4,4a,5,5a,6-hexahydrocyclopropa[f]indazol-3-yl)-1H-indol-6-yl)-2-(4-((1-(1-(2,6-dioxopiperidin-3-yl)-3-methyl-2-oxo-2,3-dihydro-1H-benzo[d]imidazol-4-yl)piperidin-4-yl)methyl)piperazin-1-yl)-N-methylpropanamide]"
15,42.7,"C[C@@H](C(=O)N(C)c1ccc2cc(-c3n[nH]c4c3C[C@@H]3C(F)(F)[C@]3(C)C4)[nH]c2c1)N1CCN(CC2CCN(c3ccc(C(=O)NC4CCC(=O)NC4=O)nc3)CC2)CC1 (stereo partly drawn) [Compound 66, 5-(4-((4-((S)-1-((2-((4aS,5aR)-5,5-difluoro-5a-methyl-1,4,4a,5,5a,6-hexahydrocyclopropa[f]indazol-3-yl)-1H-indol-6-yl)(methyl)amino)-1-oxopropan-2-yl)piperazin-1-yl)methyl)piperidin-1-yl)-N-(2,6-dioxopiperidin-3-yl)picolinamide]"
16,140,"CN(C(=O)CCC1CCN(c2ccc(C(=O)NC3CCC(=O)NC3=O)nc2)C1)c1ccc2cc(-c3n[nH]c4c3C[C@@H]3C(F)(F)[C@]3(C)C4)[nH]c2c1 (stereo partly drawn) [Compound 69, 5-(3-(3-((2-((4aS,5aR)-5,5-difluoro-5a-methyl-1,4,4a,5,5a,6-hexahydrocyclopropa[f]indazol-3-yl)-1H-indol-6-yl)(methyl)amino)-3-oxopropyl)pyrrolidin-1-yl)-N-(2,6-dioxopiperidin-3-yl)picolinamide]"
